Test system: patients with psoriatic arthritis
Experiment: Phase 2 trial in psoriatic arthritis: PASI75 response at week 16
Assay type: in vivo, human
Settings: for Odds Ratio for PASI75 response / Odds Ratio (OR) for PASI75 response / Interaction Term for PASI75 response (ratio of odds ratios): week 16
Method: In a double-blind Phase 2 trial, 203 patients with psoriatic arthritis were randomized into three groups: deucravacitinib 6 mg once daily (N=70), deucravacitinib 12 mg once daily (N=67), or placebo (N=66). All subjects had active psoriatic arthritis according to the Classification Criteria for Psoriatic Arthritis (CASPAR); for active disease, these criteria required ≥3 tender joint count, ≥3 swollen joint count, and a C-reactive protein level above 3 mg/L. Other inclusion criteria included the following: presence of at least one plaque psoriasis lesion, and prior treatment failure with a non-biologic disease modifying anti-rheumatic drug, a non-steroidal anti-inflammatory drug, or a steroid. With respect to treatment history, approximately 70% of subjects had not received prior treatment with a biologic and were biologic naïve, while up to 30% of subjects had failed or had been intolerant to one TNF-inhibitor (TNF=Tumor necrosis factor, also known as TNFα). Randomization was stratified by prior TNF-inhibitor use (experienced/naïve) and body weight (<90 kg and ≥90 kg).
Clinical measures included the Psoriasis […] (PASI) score for skin psoriasis, American College of Rheumatology 20 (ACR20) response, Psoriatic Arthritis Disease Activity Score (PASDAS), Health Assessment Questionnaire-Disability Index (HAQ-DI), and Disease Activity Score 28 CRP (DAS28). To evaluate the predictive value of different protein measurements for the clinical response to deucravacitinib, baseline protein concentrations for responders and non-responders, as defined by ACR20 or PASI75 at week 16, were compared for each arm (placebo, 6 mg deucravacitinib once-daily, and 12 mg deucravacitinib once-daily).
In addition, a logistic regression model was fit, to determine whether baseline disease score (dichotomized by the median baseline score, into baseline score high and baseline score low groups) was associated with response status. The model generated an odds ratio for each dosed arm versus placebo, in baseline score high and baseline score low groups.
Boxplots for baseline protein level by response were generated with a horizontal line indicating the median protein level at baseline. For each treatment arm, a two-sample t-test was performed to test whether mean baseline serum protein level was different in responders versus non-responders. A Wilcoxon rank sum test (Mann-Whitney U test) was also performed to evaluate the difference in median serum protein level between responders and non-responders. Further, barplots of ACR20 and PASI75 response rate at week 16 for each treatment arm were generated for all subjects (protein level high and protein level low subjects, dichotomized according to median baseline level). Line plots of ACR20 and PASI75 response rate over time for each treatment arm were generated for protein level high and protein level low groups. Logistic regression models were also fit to evaluate associations between baseline protein levels and clinical outcome.
For certain analyses described herein, patients were dichotomized by median values (e.g., of the proteins listed above or other measures) into “high” and “low” groups, such that the high group had values above the median and the low group had values less than or equal to the median.
In addition, logistic regression models were fit for response measures ACR20 and PASI75, to generate the odds ratio of each of the deucravacitinib treatment arms versus placebo, in BD2-high and BD2-low groups. The following logistic regression models were used: • For ACR20 response status: ACR20 (Y/N)=treatment arm+BD2 group+treatment arm*BD2 group+TNF-inhibitor use+baseline weight (continuous). • For PASI75 response status: PASI75 (Y/N)=treatment arm+BD2 group+treatment arm*BD2 group+TNF-inhibitor use+baseline weight (continuous). […]

[2H]C([2H])([2H])NC(=O)c1nnc(NC(=O)C2CC2)cc1Nc1cccc(-c2ncn(C)n2)c1OC [deucravacitinib, 6-(cyclopropanecarboxamido)-4-((2-methoxy-3-(1-methyl-1H-1,2,4-triazol-3-yl)phenyl)amino)-N-(methyl-d3)pyridazine-3-carboxamide]
Odds Ratio, PASI75 response status (CRP-high-PASI-high, 12 mg QD vs placebo): 17.226 | Odds Ratio, PASI75 response status (CRP-high-PASI-low, 6 mg QD vs placebo): 0.710 | Odds Ratio, PASI75 response status (CRP-high-PASI-low, 12 mg QD vs placebo): 5.115 | Odds Ratio, PASI75 response status (CRP-high, 6 mg QD vs placebo, adjusted for baseline PASI score): 3.82 | Odds Ratio, PASI75 response status (CRP-high, 12 mg QD vs placebo, adjusted for baseline PASI score): 12.05 | Odds Ratio, PASI75 response status (CRP-low-PASI-high, 6 mg QD vs placebo): 2.470 | Odds Ratio, PASI75 response status (CRP-low-PASI-high, 12 mg QD vs placebo): 16.368 | Odds Ratio, PASI75 response status (CRP-low-PASI-low, 6 mg QD vs placebo): 1.866 | Odds Ratio, PASI75 response status (CRP-low-PASI-low, 12 mg QD vs placebo): 1.197 | Odds Ratio, PASI75 response status (CRP-low, 6 mg QD vs placebo, adjusted for baseline PASI score): 2.29 | Odds Ratio, PASI75 response status (CRP-low, 12 mg QD vs placebo, adjusted for baseline PASI score): 3.79 | Odds Ratio for PASI75 response (IL-17A high (baseline above median 0.575 ng/L), 6 mg QD vs placebo): 12.643 | Odds Ratio for PASI75 response (IL-17A high (baseline above median 0.575 ng/L), 12 mg QD vs placebo): 20.916 | PASI75 response rate at week 16 (IL-17A high group, 6 mg QD and 12 mg QD vs placebo (FIG. 21)): higher in both 6 mg QD and 12 mg QD treatment arms compared to placebo | Odds Ratio, PASI75 response status (IL-17A high-PASI high, 6 mg QD vs placebo): 12.355 | Odds Ratio, PASI75 response status (IL-17A high-PASI high, 12 mg QD vs placebo): 15.937 | Odds Ratio, PASI75 response status (IL-17A high-PASI low, 6 mg QD vs placebo): 13.247 | Odds Ratio, PASI75 response status (IL-17A high-PASI low, 12 mg QD vs placebo): 30.955 | Odds Ratio, PASI75 response status (IL-17A high, 6 mg QD vs placebo, adjusted for baseline PASI score): 13.452 | Odds Ratio, PASI75 response status (IL-17A high, 12 mg QD vs placebo, adjusted for baseline PASI score): 23.963 | Odds Ratio for PASI75 response (IL-17A high, treatment arms combined vs placebo): 15.763 | Odds Ratio, PASI75 response status (IL-17A low-PASI high, 6 mg QD vs placebo): 3.005 | Odds Ratio, PASI75 response status (IL-17A low-PASI high, 12 mg QD vs placebo): 20.919 | Odds Ratio, PASI75 response status (IL-17A low-PASI low, 6 mg QD vs placebo): 0.188 | Odds Ratio, PASI75 response status (IL-17A low-PASI low, 12 mg QD vs placebo): 0.415 | Odds Ratio, PASI75 response status (IL-17A low, 6 mg QD vs placebo, adjusted for baseline PASI score): 0.588 | Odds Ratio for PASI75 response (IL-17A low, 6 mg QD vs placebo): 0.553 | Odds Ratio, PASI75 response status (IL-17A low, 12 mg QD vs placebo, adjusted for baseline PASI score): 1.812 | Odds Ratio for PASI75 response (IL-17A low, 12 mg QD vs placebo): 1.730 | Odds Ratio for PASI75 response (IL-17A low, treatment arms combined vs placebo): 1.014 | PASI75 response rate at week 16 (IL-19-high group, 6 mg QD and 12 mg QD vs placebo arm (FIG. 14)): higher in both 6 mg QD and 12 mg QD treatment arms compared to the response rate in the placebo arm | Odds Ratio (OR) for PASI75 response (IL-19-low-PASI high, 6 mg QD vs placebo): 1.244 | Odds Ratio (OR) for PASI75 response (IL-19-low-PASI high, 12 mg QD vs placebo): 2.845 | Odds Ratio (OR) for PASI75 response (IL-19-low-PASI low, 6 mg QD vs placebo): 0.321 | Odds Ratio (OR) for PASI75 response (IL-19-low-PASI low, 12 mg QD vs placebo): 0.380 | Odds Ratio (OR) for PASI75 response (IL-19 low, 6 mg QD vs placebo): 0.443 | Odds Ratio (OR) for PASI75 response (IL-19 low, 12 mg QD vs placebo): 0.842 | Odds Ratio for PASI75 response (IL-19 low, treatment arms combined vs placebo): 6.284 | Interaction Term for PASI75 response (ratio of odds ratios) (adjusted for baseline PASI score, 6 mg QD vs placebo: BD2-high versus BD2-low): 13.742 | Interaction Term for PASI75 response (ratio of odds ratios) (adjusted for baseline PASI score, 12 mg QD vs placebo: BD2-high versus BD2-low): 19.455 | Odds Ratio for PASI75 response (adjusted for baseline PASI score, All patients, 6 mg QD vs placebo): 3.052 | Odds Ratio for PASI75 response (adjusted for baseline PASI score, All patients, 12 mg QD vs placebo): 6.494 | Odds Ratio for PASI75 response (adjusted for baseline PASI score, BD2-high, 6 mg QD vs placebo): 13.559 | Odds Ratio for PASI75 response (adjusted for baseline PASI score, BD2-high, 12 mg QD vs placebo): 34.074 | Odds Ratio for PASI75 response (adjusted for baseline PASI score, BD2-low, 6 mg QD vs placebo): 0.987 | Odds Ratio for PASI75 response (adjusted for baseline PASI score, BD2-low, 12 mg QD vs placebo): 1.751 | Odds Ratio (OR) for PASI75 response (adjusted for baseline PASI score, IL-19 low, 6 mg QD vs placebo): 0.476 | Odds Ratio (OR) for PASI75 response (adjusted for baseline PASI score, IL-19 low, 12 mg QD vs placebo): 0.896 | PASI75 response rate at week 16 (both CRP-high and CRP-low groups, 6 mg, 12 mg, placebo arms (FIG. 38)): the response rate was higher in the 6 mg deucravacitinib treatment arm than in the placebo arm, and the response rate was even higher in the 12 mg deucravacitinib treatment arm than in the 6 mg treatment arm | Interaction Term for PASI75 response (ratio of odds ratios) (treatment arms combined vs placebo: BD2 high versus BD2 low): 12.100 | Interaction Term: treatment arm*CRP group, PASI75 (treatment arms combined vs placebo: CRP high versus CRP low): 1.903 | Interaction Term for PASI75 response (ratio of odds ratios) (treatment arms combined vs placebo: IL-17A high versus IL-17A low): 15.541
